Results published in patent US8865623B2, “Herbicidally active cyclic diones and derivatives thereof, processes for their preparation, compositions, and method of controlling weeds” (Syngenta Limited, priority 2009, dated 2014).

Key:
Assay type in all cases: in vivo
[1] = tested on: Alopecurus myosuroides (ALOMY); test: Pre-emergence herbicidal activity, glasshouse pot test; settings: Alopecurus myosuroides, 312 h; Rate 250 g/ha; pre-emergence spray; evaluated after 13 days; read-out: Pre-emergence activity ALOMY (100=total damage to plant; 0=no damage to plant)
How it was run: (§1)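 Pot-grown plants in standard soil received a spray one day post-sowing (pre-emergence) or after eight days' growth (post-emergence). Scoring took place 13 days later on a 0–100 scale, 100 meaning total damage.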

[2] = tested on: Avena fatua (AVEFA); test: as above; settings: Avena fatua, 312 h; Rate 250 g/ha; pre-emergence spray; evaluated after 13 days; read-out: Pre-emergence activity AVEFA (100=total damage to plant; 0=no damage to plant)
How it was run: as §1

[3] = tested on: Lolium perenne (LOLPE); test: as above; settings: Lolium perenne, 312 h; Rate 250 g/ha; pre-emergence spray; evaluated after 13 days; read-out: Pre-emergence activity LOLPE (100=total damage to plant; 0=no damage to plant)
How it was run: as §1

[4] = tested on: Echinochloa crus-galli (ECHCG); test: as above; settings: Echinochloa crus-galli, 312 h; Rate 250 g/ha; pre-emergence spray; evaluated after 13 days; read-out: Pre-emergence activity ECHCG (100=total damage to plant; 0=no damage to plant)
How it was run: as §1

[5] = tested on: Alopecurus myosuroides (ALOMY); test: Post-emergence herbicidal activity, glasshouse pot test; settings: Alopecurus myosuroides, 312 h, rate 250 g/ha, evaluated after 13 days, glasshouse, read-out: Post-emergence activity ALOMY (100=total damage to plant; 0=no damage to plant)
How it was run: as §1

[6] = tested on: Avena fatua (AVEFA); test: as above; settings: Avena fatua, 312 h, rate 250 g/ha, evaluated after 13 days, glasshouse, read-out: Post-emergence activity AVEFA (100=total damage to plant; 0=no damage to plant)
How it was run: as §1

[7] = tested on: Lolium perenne (LOLPE); test: as above; settings: Lolium perenne, 312 h, rate 250 g/ha, evaluated after 13 days, glasshouse, read-out: Post-emergence activity LOLPE (100=total damage to plant; 0=no damage to plant)
How it was run: as §1

[8] = tested on: Echinochloa crus-galli (ECHCG); test: as above; settings: Echinochloa crus-galli, 312 h, rate 250 g/ha, evaluated after 13 days, glasshouse, read-out: Post-emergence activity ECHCG (100=total damage to plant; 0=no damage to plant)
How it was run: as §1

SMILES | pest or weed control at 250 g/ha [1] [%] | pest or weed control at 250 g/ha [2] [%] | pest or weed control at 250 g/ha [3] [%] | pest or weed control at 250 g/ha [4] [%] | pest or weed control at 250 g/ha [5] [%] | pest or weed control at 250 g/ha [6] [%] | pest or weed control at 250 g/ha [7] [%] | pest or weed control at 250 g/ha [8] [%]
CCc1ccc(Oc2ccc3ccccc3c2)cc1C1=C(O)C(C)(C)OC(C)(C)C1=O [Example A-56] | 80 | 30 | 100 | 80 | 100 | 0 | 100 | 100
CCc1ccc(Oc2cnc3cc(F)ccc3n2)cc1C1=C(O)CC(C)(C)CC1=O [Example A-298] | 100 | 100 | 100 | 100 | 100 | 100 | 100 | 100
CCc1ccc(Oc2nc(F)c(Cl)c(OC)c2Cl)cc1C1=C(O)C(C)(C)OC(C)(C)C1=O [Example A-222] | 0 | 0 | 0 | 0 | 20 | 20 | 30 | 30
CCc1ccc(Oc2ccc(Br)cc2)cc1C1=C(O)C(C)(C)OC(C)(C)C1=O [Example A-8] | 60 | 10 | 100 | 100 | 100 | 0 | 100 | 100
CCc1ccc(Oc2nc3ccc(Cl)cc3s2)cc1C1=C(O)[C@@H]2CC[C@](C)(C1=O)C2(C)C [Example A-320] | 80 | 80 | 100 | 100 | 100 | 100 | 90 | 100
CCc1ccc(Oc2ccc(F)c(Cl)c2)cc1C1=C(O)[C@H]2CC[C@H](C2)C1=O [Example A-246] | 70 | 50 | 60 | 100 | 50 | 60 | 20 | 100
CCc1ccc(Oc2ccc(Br)cc2)cc1C1=C(O)CC(C)(C)CC1=O [Example A-48] | 100 | 30 | 70 | 100 | 80 | 40 | 70 | 100
CCc1ccc(Oc2ccc(C(F)(F)F)cc2Cl)cc1C1=C(O)[C@H]2CC[C@H](C2)C1=O [Example A-331] | 90 | 80 | 100 | 100 | 80 | 80 | 80 | 100
CCc1ccc(Oc2cc(OC)c(Cl)nn2)cc1C1=C(O)C(C)(C)OC(C)(C)C1=O [Example A-169] | 20 | 0 | 10 | 30 | 20 | 30 | 20 | 30
CCc1ccc(Oc2ccc3nc(Cl)cn3n2)cc1C1=C(O)C(C)(C)OC(C)(C)C1=O [Example A-131] | 30 | 40 | 60 | 90 | 70 | 80 | 70 | 90
CCc1ccc(Oc2nc3ccc(Cl)cc3s2)cc1C1=C(O)CC2(CCOCC2)CC1=O [Example A-304] | 80 | 80 | 70 | 100 | 100 | 100 | 100 | 100
CCc1ccc(Oc2ccc(F)cc2)cc1C1=C(O)[C@@H]2CC[C@](C)(C1=O)C2(C)C [Example A-239] | 20 | 0 | 60 | 90 | 20 | 10 | 30 | 70
CCc1ccc(Oc2cnc3ccccc3n2)cc1C1=C(O)CC2(CCOCC2)CC1=O [Example A-307] | 100 | 70 | 90 | 100 | 100 | 100 | 100 | 100
CCc1ccc(Oc2ncc(Cl)cc2Cl)cc1C1=C(O)[C@H]2CC[C@H](C2)C1=O [Example A-336] | 90 | 80 | 100 | 100 | 90 | 80 | 100 | 100
CCc1ccc(Oc2ccc(C(F)(F)F)cn2)cc1C1=C(O)CC(C)(C)CC1=O [Example A-83] | 70 | 90 | 90 | 100 | 90 | 100 | 60 | 100
CCc1ccc(Oc2cnc3cc(Cl)ccc3n2)cc1C1=C(O)CC2(CCOCC2)CC1=O [Example A-233] | 70 | 70 | 90 | 100 | 100 | 100 | 100 | 100
CCc1ccc(Oc2ccc([N+](=O)[O-])cn2)cc1C1=C(O)C(C)(C)OC(C)(C)C1=O [Example A-149] | 10 | 10 | 20 | 60 | 10 | 30 | 30 | 50
CCc1ccc(Oc2ccc3ccccc3n2)cc1C1=C(O)CC(C)(C)CC1=O [Example A-292] | 90 | 50 | 100 | 100 | 100 | 90 | 90 | 100
CCc1ccc(Oc2ccc(C(F)(F)F)c(C#N)c2)cc1C1=C(O)C(C)(C)OC(C)(C)C1=O [Example A-210] | 30 | 10 | 20 | 60 | 90 | 90 | 100 | 100
CCc1ccc(Oc2nc3ccc(C(F)(F)F)cc3s2)cc1C1=C(O)C(C)(C)OC(C)(C)C1=O [Example A-219] | 50 | 30 | 80 | 90 | 90 | 100 | 90 | 100
CCc1ccc(Oc2ccc(F)c(F)c2)cc1C1=C(O)C(C)(C)OC(C)(C)C1=O [Example A-177] | 0 | 0 | 30 | 60 | 0 | 20 | 40 | 70
